We go through 1 compound from article PMC9065678, “BI 1015550 is a PDE4B Inhibitor and a Clinical Drug Candidate for the Oral Treatment of Idiopathic Pulmonary Fibrosis” (Frontiers in Pharmacology, 2022).

The subject of one experiment is FN mRNA expression. Description: TGF-β-induced FN mRNA expression in IPF lung fibroblasts (Taqman). The settings on record: IPF-LF, TGF-β 4 ng/mL, 48 h. The experiment is classed as cell-based, human. Here is the method:
Fibroblasts from donors with IPF (IPF-LF) (Asterand, Detroit, MI, United States) were grown in fibroblast basal medium (CC-3131, Lonza Walkersville, Inc., Walkersville, MD, United States) supplemented with FGM-2 SingleQuot Kit Supplements and Growth Factors (CC-4126, Lonza). Cells were grown in a humidified incubator at 37°C and 5% CO2. All assays were performed at passage 7 or 8. For assay set-up, cells were seeded in fibroblast growth medium plus supplements in assay-relevant densities. For TGF-β-stimulated assays, cells were seeded at 4,500 cells per well in 96-well plates. Proliferation assays were performed in 96-well plates at an initial seeding cell density on day 0 of 2,000 cells per well. After 24-h, the cell culture medium was changed to starvation medium (fibroblast basal medium without supplements). […]
For determination of Col1A1, Col3A1, and FN mRNA expression, IPF-LF cells were stimulated with TGF-β (4 ng/mL) for 48 h. […] Quantitative real-time polymerase chain reactions were set up using the TaqMan™ Fast Advanced Master Mix (Applied Biosystems, Carlsbad, CA, United States) and species-specific gene expression assays: Col1A1 #Hs00164004_m1 FAM, Col3A1 #Hs0094309_m1 FAM, FN #Hs01549976_m1 FAM, 18S #4310893E. […] Fold-change of gene expression was calculated by the Viia7 software (regulation based upon housekeeper).
Background: Real-time PCR tracks product formation cycle by cycle.

Another experiment has as its target T1, PDE5 (Homo sapiens, UniProt O76074).
T1 construct: Eurofins Cerep
Kind of experiment: PDE5 inhibition screen at Eurofins Cerep. Format: biochemical. The settings on record: screened at Eurofins Cerep.

The next experiment deals with PDE6. Description: PDE6 inhibition screen at Eurofins Cerep. Format: biochemical, bovine. The note with it: screened at Eurofins Cerep.
Another experiment has as its target T2, PDE4D (Homo sapiens, UniProt Q08499).
T2 construct: PDE4D NG_027957, AA 79–438; made in house; host or cells: SF9 insect cells (baculovirus, Bac-To-Bac, pFastbac)
Description: Recombinant PDE activity, scintillation proximity assay: PDE4D. Format: biochemical. The settings on record: human recombinant active site fragment, substrate [3H]cAMP, means from n independent experiments; read-out: IC50 PDE4D2. Here is the method: For the preparation of human recombinant PDEs of interest, the Bac-To-Bac baculoviral expression system from Invitrogen (Carlsbad, CA, United States) was used according to the instruction manual. […] The plasmids were transformed into DH10Bac bacteria, SF9 insect cells were transfected with the bacmid DNA, and the resulting baculoviruses were stored and used for further rounds of infections. For protein production, SF9 cells were infected until a cytopathic effect was visible (after about 72 h), the SF9 cells were harvested and broken up by 3 freeze/thaw cycles, and by shearing 10 times through a 0.1 mm cannula using a syringe. […] The Phosphodiesterase Scintillation Proximity Assays (TRKQ7090 for [^3H]cAMP, GE Healthcare Europe GmbH, Chalfont St Giles, United Kingdom, and TRKQ7100 for [^3H]cGMP, Perkin Elmer, Waltham, MA, United States) were performed essentially according to the instruction manual. […] Assay solutions containing recombinant baculoviral-expressed PDE (to give an activity of 5.000–20.000 cpm corresponding to 5–20% of total activity added), 50 mmol/L Tris/HCl pH 7.5, 8.3 mmol/L MgCl2, 1.7 mmol/L EGTA, and 10 µL radiolabeled substrate (0.05 µCi in H2O) were incubated for 1 h at 30°C (final volume 100 μL).
Background: In a scintillation proximity assay essentially only radioactivity close to the scintillant gives light.

Experiment [1] concerns LPS-stimulated TNF-α release. Kind of experiment: LPS-induced TNF-α release in human whole blood. Format: cell-based. The settings on record: LPS 0.1 µg/mL. Here is the method: Heparinized whole blood was collected from the Aorta abdominalis of WI (Han) male rats (Charles River Laboratories, Sulzfeld, Germany) and from healthy male human donors, and treated with 1 µL (rat) or 2.5 µL (human) of BI 1015550 or vehicle [final DMSO concentration 0.5% (v/v)]. Final assay volumes were 200 μL (rat) and 500 μL (human). After incubation for 30 min at 37°C, 95% humidity, and 5% CO2, cultures were treated with LPS [final concentration 10 µg/mL (rat), 0.1 µg/mL (human)] or saline. After 7 h, plates were centrifuged at 3.200 × g at 4°C for 10 min and plasma was used for cytokine measurement. Meso Scale Discovery (MSD) (Rockville, MD, United States) rat and human pro-inflammatory panels were used for detection of TNF-α and IL-6 in rat plasma [diluted 1:2 (v/v)]) and human plasma [negative control undiluted, other samples diluted 1:200 (v/v)] according to the manufacturer’s instructions.

T2 sequence (Q08499 381-740): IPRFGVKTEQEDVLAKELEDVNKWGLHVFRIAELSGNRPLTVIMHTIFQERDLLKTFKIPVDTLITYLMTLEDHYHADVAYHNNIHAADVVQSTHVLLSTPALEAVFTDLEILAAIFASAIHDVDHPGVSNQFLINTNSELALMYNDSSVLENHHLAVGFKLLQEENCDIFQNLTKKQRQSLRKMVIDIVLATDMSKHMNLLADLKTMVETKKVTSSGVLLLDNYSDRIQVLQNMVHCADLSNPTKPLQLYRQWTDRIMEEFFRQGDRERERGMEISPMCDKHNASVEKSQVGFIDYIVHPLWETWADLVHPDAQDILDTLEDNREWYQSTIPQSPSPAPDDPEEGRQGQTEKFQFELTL

What is called IC50 is the concentration that inhibits the measured activity by half. With `[O-][S+]1CCc2nc(N3CCC(c4ncc(Cl)cn4)CC3)nc(NC3(CO)CCC3)c21` (stereo not drawn) [BI 1015550], the values for the IC50 (in the experiment with FN mRNA expression; at PDE4D; in experiment [1]) were 246 nM, 91 nM and 670 nM, respectively. Besides, the “Inhibition of human PDE5” value at PDE5 is “did not inhibit”. Besides, the “Inhibition of bovine PDE6” value in the experiment on PDE6 is given as “did not inhibit”. In addition, in experiment [1], the “Maximal inhibition of TNF-α release” value is recorded as 70–80%.
